Results published in patent US20150087627A1, “COMBINATION OF KINASE INHIBITORS AND USES THEREOF” (Intellikine LLC, priority 2011, published 2015).
Read-outs that look alike come from different tables or passages of the source.

Key:
Type in all cases: biochemical
PI3K β (p110β/p85α) = biological target: T1, PI3K β (p110β/p85α) (Homo sapiens, UniProt P42338); test: PI 3-Kinase (human) HTRF assay, PI3K β; conditions: read-out: PI3K β IC50
T1 construct: purchased Upstate / Millipore Corporation
Protocol: Briefly, the assay is a time resolved FRET assay that indirectly measures PIP3 product formed by the activity of a PI3-K. The kinase reaction is performed in a microtiter plate (e.g., a 384 well microtiter plate). The total reaction volume is approximately 20 ul per well. In the first step, each well receives 2 ul of test compound in 20% dimethylsulphoxide resulting in a 2% DMSO final concentration. […] The plate is sealed and incubated for 15 minutes at room temperature. […] The plate is sealed and incubated for 1 hour at room temperature. The reaction is stopped by adding 5 ul of Stop Solution per well and then 5 ul of Detection Mix is added per well. The plate is sealed, incubated for 1 hour at room temperature, and then read on an appropriate plate reader. Data is analyzed and IC50s are generated using GraphPad Prism 5.

PI3K δ = biological target: T2, PI3K δ (Homo sapiens, UniProt O00329); test: PI 3-Kinase (human) HTRF assay, PI3K δ; conditions: read-out: PI3K δ IC50
T2 construct: purchased Upstate / Millipore Corporation

PI3K γ (p110γ) = biological target: T3, PI3K γ (p110γ) (Homo sapiens, UniProt P48736); test: PI 3-Kinase (human) HTRF assay, PI3K γ; conditions: read-out: PI3K γ IC50
T3 construct: purchased Upstate / Millipore Corporation

PI3K α (p110α/p85α) = biological target: T4, PI3K α (p110α/p85α) (Homo sapiens, UniProt P42336); test: PI 3-Kinase (human) HTRF assay, PI3K α; conditions: read-out: PI3K α IC50
T4 construct: purchased Upstate / Millipore Corporation

mTOR = biological target: T5, mTOR (Homo sapiens, UniProt P42345); test: mTOR kinase inhibition assay (radiometric or LanthaScreen TR-FRET); conditions: read-out: mTORC IC50
T5 construct: purchased Invitrogen
Protocol: The cross-activity or lack thereof of one or more compounds of the present invention against mTor can be measured according to any procedures known in the art or methods disclosed below.
The compounds described herein can be tested against recombinant mTOR (Invitrogen) in an assay containing 50 mM HEPES, pH 7.5, 1 mM EGTA, 10 mM MgCl2, 2.5 mM, 0.01% Tween, 10 μM ATP (2.5 μCi of μ-32P-ATP), and 3 μg/mL BSA. Rat recombinant PHAS-1/4EBP1 (Calbiochem; 2 mg/mL) is used as a substrate. Reactions are terminated by spotting onto nitrocellulose, which is washed with 1M NaCl/1% phosphoric acid (approximately 6 times, 5-10 minutes each). Sheets are dried and the transferred radioactivity quantitated by phosphorimaging.
For instance, one can use Invitrogen's LanthaScreen™ Kinase assay to test the inhibitors of mTOR disclosed herein. This assay is a time resolved FRET platform that measures the phosphorylation of GFP labeled 4EBP1 by mTOR kinase. The kinase reaction is performed in a white 384 well microtiter plate. The total reaction volume is 20 ul per well and the reaction buffer composition is 50 mM HEPES pH7.5, 0.01% Polysorbate 20, 1 mM EGTA, 10 mM MnCl2, and 2 mM DTT. In the first step, each well receives 2 ul of test compound in 20% dimethylsulphoxide resulting in a 2% DMSO final concentration. […] The plate is sealed and incubated for 1 hour at room temperature. […] The plate is sealed, incubated for 1 hour at room temperature, and then read on a plate reader set up for LanthaScreen™ TR-FRET. Data is analyzed and IC50s are generated using GraphPad Prism 5.

T1 sequence (P42338 whole entry): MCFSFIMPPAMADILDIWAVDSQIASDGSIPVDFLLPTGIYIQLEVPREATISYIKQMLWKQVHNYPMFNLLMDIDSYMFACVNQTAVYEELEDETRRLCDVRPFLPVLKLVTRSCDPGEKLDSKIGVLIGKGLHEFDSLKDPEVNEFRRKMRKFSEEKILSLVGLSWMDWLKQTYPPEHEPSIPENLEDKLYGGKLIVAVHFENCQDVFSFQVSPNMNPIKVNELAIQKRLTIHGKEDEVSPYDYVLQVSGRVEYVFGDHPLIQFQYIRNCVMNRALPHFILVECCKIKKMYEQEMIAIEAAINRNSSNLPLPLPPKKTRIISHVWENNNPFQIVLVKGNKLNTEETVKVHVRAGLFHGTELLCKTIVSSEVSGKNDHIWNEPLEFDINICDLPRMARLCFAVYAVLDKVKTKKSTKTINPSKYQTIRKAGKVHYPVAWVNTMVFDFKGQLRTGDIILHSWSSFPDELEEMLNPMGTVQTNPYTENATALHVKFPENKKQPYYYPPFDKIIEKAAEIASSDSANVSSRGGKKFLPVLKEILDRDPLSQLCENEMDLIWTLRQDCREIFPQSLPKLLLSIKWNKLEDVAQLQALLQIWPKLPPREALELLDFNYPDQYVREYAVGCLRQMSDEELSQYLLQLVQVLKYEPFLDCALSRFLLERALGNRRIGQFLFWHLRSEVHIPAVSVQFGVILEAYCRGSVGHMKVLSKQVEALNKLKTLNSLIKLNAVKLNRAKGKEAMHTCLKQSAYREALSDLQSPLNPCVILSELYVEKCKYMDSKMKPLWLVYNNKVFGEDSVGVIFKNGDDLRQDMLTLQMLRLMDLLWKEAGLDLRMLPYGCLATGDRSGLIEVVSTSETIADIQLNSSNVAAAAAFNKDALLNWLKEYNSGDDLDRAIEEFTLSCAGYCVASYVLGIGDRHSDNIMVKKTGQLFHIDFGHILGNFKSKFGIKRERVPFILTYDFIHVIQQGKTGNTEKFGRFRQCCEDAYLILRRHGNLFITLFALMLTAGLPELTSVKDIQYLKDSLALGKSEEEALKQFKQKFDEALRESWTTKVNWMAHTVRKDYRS
T1 sequence (P27986 whole entry partner): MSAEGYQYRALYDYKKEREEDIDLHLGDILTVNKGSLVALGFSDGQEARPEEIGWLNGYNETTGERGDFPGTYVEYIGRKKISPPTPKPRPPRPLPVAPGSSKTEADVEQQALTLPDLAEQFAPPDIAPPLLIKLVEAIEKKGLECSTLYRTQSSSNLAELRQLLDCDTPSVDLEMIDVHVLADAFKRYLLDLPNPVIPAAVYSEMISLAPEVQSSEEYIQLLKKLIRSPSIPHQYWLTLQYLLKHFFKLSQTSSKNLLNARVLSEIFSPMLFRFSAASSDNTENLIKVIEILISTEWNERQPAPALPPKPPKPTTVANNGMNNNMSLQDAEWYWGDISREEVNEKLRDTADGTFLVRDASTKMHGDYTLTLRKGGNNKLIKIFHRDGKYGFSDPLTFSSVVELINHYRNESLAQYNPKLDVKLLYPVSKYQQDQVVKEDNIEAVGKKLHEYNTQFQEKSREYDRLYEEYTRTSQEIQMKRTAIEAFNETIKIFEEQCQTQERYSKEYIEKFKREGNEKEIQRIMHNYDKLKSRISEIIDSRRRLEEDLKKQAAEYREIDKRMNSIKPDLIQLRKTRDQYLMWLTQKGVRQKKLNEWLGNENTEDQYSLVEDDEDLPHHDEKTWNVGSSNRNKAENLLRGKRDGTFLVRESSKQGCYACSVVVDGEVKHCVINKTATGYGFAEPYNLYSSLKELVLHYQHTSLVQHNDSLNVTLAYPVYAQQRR
T3 sequence (P48736 whole entry): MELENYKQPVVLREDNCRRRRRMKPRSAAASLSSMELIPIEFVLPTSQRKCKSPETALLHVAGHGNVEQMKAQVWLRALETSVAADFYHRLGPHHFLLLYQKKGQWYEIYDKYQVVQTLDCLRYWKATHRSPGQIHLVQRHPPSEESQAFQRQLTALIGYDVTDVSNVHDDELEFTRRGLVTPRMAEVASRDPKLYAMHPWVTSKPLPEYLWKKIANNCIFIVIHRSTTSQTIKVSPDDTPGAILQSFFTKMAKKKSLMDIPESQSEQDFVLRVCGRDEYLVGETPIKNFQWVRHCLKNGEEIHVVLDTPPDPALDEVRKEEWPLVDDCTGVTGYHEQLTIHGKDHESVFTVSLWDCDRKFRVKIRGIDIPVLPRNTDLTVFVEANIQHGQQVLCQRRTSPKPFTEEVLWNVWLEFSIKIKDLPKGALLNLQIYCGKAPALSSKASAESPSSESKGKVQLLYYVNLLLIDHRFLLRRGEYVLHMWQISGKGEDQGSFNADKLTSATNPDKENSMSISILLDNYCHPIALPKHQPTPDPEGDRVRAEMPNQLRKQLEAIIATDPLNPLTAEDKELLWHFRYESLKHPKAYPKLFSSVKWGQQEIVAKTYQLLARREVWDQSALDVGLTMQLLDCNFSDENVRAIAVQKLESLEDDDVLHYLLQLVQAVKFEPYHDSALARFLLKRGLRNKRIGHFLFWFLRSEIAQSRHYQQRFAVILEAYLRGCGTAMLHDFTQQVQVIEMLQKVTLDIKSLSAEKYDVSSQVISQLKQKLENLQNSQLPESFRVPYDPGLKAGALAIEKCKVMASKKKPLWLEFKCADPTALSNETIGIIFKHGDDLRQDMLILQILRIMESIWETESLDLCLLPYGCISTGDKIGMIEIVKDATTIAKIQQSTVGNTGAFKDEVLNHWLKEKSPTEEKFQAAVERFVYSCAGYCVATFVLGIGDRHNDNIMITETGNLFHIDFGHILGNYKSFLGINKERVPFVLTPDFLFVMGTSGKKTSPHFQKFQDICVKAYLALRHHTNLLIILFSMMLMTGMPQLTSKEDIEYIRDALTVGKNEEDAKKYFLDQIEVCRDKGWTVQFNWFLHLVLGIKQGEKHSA
T4 sequence (P42336 whole entry): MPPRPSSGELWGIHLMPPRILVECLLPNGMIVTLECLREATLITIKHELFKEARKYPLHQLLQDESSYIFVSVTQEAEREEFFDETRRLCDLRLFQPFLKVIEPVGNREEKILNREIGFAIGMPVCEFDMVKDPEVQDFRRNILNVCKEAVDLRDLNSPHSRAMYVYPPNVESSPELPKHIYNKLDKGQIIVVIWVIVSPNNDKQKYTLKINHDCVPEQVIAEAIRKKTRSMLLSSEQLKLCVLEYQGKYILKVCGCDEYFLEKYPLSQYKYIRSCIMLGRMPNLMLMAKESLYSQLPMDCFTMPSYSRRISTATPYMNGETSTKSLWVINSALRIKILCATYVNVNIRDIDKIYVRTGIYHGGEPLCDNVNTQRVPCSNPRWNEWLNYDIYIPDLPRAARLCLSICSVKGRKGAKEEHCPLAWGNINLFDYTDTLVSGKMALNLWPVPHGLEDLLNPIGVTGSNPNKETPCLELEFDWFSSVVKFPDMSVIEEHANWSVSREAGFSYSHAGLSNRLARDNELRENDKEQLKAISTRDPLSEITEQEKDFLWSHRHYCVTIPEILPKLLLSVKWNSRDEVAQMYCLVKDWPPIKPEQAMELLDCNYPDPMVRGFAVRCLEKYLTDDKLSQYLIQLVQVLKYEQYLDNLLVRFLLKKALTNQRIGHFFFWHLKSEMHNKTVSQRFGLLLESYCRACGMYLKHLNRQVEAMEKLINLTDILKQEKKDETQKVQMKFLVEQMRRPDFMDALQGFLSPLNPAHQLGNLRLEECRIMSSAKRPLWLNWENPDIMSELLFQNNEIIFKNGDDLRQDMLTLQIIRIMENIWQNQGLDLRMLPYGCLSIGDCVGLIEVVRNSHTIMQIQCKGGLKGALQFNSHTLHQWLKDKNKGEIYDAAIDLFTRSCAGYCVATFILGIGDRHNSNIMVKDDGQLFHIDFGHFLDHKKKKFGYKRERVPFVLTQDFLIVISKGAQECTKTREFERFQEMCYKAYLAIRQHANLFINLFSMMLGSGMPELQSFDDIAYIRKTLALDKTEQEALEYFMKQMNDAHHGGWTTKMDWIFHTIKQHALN
T4 sequence (P27986 whole entry partner): as the sequence (P27986 whole entry partner) above
T2 sequence (O00329 whole entry): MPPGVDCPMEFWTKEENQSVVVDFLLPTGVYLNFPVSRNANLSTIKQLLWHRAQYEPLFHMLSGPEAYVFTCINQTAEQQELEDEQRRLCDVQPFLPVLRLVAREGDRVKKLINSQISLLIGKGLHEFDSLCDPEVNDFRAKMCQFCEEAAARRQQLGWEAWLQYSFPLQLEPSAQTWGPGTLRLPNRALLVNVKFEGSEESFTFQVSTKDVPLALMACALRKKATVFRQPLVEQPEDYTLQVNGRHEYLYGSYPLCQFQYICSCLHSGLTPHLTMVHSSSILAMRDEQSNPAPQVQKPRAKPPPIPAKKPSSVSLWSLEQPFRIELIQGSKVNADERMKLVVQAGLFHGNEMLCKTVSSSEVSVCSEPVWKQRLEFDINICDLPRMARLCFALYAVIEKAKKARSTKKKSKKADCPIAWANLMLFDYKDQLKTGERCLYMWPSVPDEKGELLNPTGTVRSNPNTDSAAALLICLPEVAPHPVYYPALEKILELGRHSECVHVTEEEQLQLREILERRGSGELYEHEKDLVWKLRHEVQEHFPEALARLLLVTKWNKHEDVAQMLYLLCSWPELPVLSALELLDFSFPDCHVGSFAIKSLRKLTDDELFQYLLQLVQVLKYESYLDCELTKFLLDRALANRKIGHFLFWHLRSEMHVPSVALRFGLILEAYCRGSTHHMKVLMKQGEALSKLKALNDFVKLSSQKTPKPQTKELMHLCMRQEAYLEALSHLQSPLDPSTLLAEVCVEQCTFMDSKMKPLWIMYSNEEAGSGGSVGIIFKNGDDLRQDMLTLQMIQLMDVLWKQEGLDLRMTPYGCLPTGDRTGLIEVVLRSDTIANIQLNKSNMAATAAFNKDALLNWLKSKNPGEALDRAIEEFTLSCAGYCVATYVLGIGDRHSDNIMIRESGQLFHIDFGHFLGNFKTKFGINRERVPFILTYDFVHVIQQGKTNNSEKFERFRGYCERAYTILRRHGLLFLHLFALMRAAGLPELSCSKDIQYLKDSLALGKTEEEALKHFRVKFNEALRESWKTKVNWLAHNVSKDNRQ
T2 sequence (P27986 whole entry partner): as the sequence (P27986 whole entry partner) above

Row | Structure (SMILES) | IC50 (PI3K β (p110β/p85α)) [µM] | IC50 (PI3K δ) [µM] | IC50 (PI3K γ (p110γ)) [µM] | IC50 (PI3K α (p110α/p85α)) [µM] | IC50 (mTOR) [µM] | IC50 (PI3K β (p110β/p85α); Table 4 (PI3K α inhibitors)) [µM] | IC50 (PI3K δ; Table 4 (PI3K α inhibitors)) [µM] | IC50 (PI3K γ (p110γ); Table 4 (PI3K α inhibitors)) [µM] | IC50 (PI3K α (p110α/p85α); Table 4 (PI3K α inhibitors)) [µM] | IC50 (mTOR; Table 4 (PI3K α inhibitors)) [µM]
1 | CC(=O)N1CCN(C2CN(c3cnc4ccc(-c5ccc6oc(N)nc6c5)cc4n3)C2)CC1 [Compound 327] | < 10 | < 1 | < 1 | < 0.1 | > 10 | – | – | – | – | –
2 | N#Cc1cnc2ccc(-c3ccc4oc(N)nc4c3)cc2c1 [Compound 93] | > 10 | > 10 | < 1 | < 1 | < 10 | – | – | – | – | –
3 | CCN(CC)C1CN(c2cnc3ccc(-c4ccc5oc(N)nc5c4)cc3n2)C1 [Compound 324] | < 10 | < 10 | < 1 | < 0.1 | > 10 | – | – | – | – | –
4 | CC(=O)N1CCC(Nc2ncnc3ccc(-c4ccc5oc(N)nc5c4)cc23)CC1 [Compound 60] | < 10 | < 1 | < 0.1 | < 0.1 | < 1 | – | – | – | – | –
5 | CC(=O)Nc1cn2cc(-c3ccc4oc(N)nc4c3)ccc2n1 [Compound 234] | < 1 | < 0.1 | < 0.1 | < 0.1 | < 1 | – | – | – | – | –
6 | CN(C)CC(=O)N1CCN(c2cnc3ccc(-c4ccc5oc(N)nc5c4)cc3n2)CC1 [Compound 139] | < 1 | < 1 | < 1 | < 0.1 | > 10 | – | – | – | – | –
7 | Nc1nc2cc(-c3ccc4ncc(N5CCN(C(=O)[C@@H]6CCCN6)CC5)nc4c3)ccc2o1 [Compound 121] | < 0.1 | < 0.1 | < 0.1 | < 0.1 | > 10 | – | – | – | – | –
8 | Nc1nc2cc(-c3ccc4ncc(N5CCC(N6CCOCC6)CC5)nc4c3)ccc2o1 [Compound 171] | < 1 | < 1 | < 1 | < 0.1 | > 10 | – | – | – | – | –
9 | Nc1ccc2cc(-c3ccc4nccc(-c5ccncc5)c4c3)ccc2n1 [Compound 5] | > 10 | < 10 | < 1 | < 1 | < 1 | – | – | – | – | –
10 | COC(=O)N1CCC(n2ncc3c(N4CCOCC4)nc(-c4ccc5oc(N)nc5c4)nc32)CC1 [Compound 330] | < 10 | > 10 | > 10 | < 1 | < 1 | – | – | – | – | –
11 | CCN1CCN(C2CN(c3cnc4ccc(-c5ccc6oc(N)nc6c5)cc4n3)C2)CC1 [Compound 329] | < 1 | < 1 | < 10 | < 0.1 | > 10 | – | – | – | – | –
12 | Cc1ccn(C2CN(c3cnc4ccc(-c5ccc6oc(N)nc6c5)cc4n3)C2)n1 [Compound 320] | < 10 | < 10 | < 10 | < 0.1 | > 10 | – | – | – | – | –
13 | Nc1nc2cc(-c3ccc4ncc(N5CC(N6CCN(C7CC7)CC6)C5)nc4c3)ccc2o1 [Compound 313] | < 10 | < 10 | < 10 | < 0.1 | < 10 | – | – | – | – | –
14 | NCC(=O)N1CCN(c2cnc3ccc(-c4ccc5oc(N)nc5c4)nc3c2)CC1 [Compound 588] | – | – | – | – | – | < 1 | < 1 | < 1 | < 0.1 | > 10
15 | Nc1nc2cc(-c3ccc4ncc(N5CC[C@H](O)C5)nc4c3)ccc2o1 [Compound 262] | < 1 | > 10 | < 1 | < 0.1 | < 10 | – | – | – | – | –
16 | C[C@H]1CN(C2CN(c3cnc4ccc(-c5ccc6oc(N)nc6c5)cc4n3)C2)CCN1 [Compound 350] | < 10 | < 10 | > 10 | < 0.1 | > 10 | – | – | – | – | –
17 | C[C@@H]1CN(C(=O)C2CN(c3cnc4ccc(-c5ccc6oc(N)nc6c5)cc4n3)C2)CCN1 [Compound 267] | < 10 | < 1 | < 1 | < 0.1 | < 10 | – | – | – | – | –
18 | CC(C)N1CCN(C2CN(c3cnc4ccc(-c5ccc6oc(N)nc6c5)nc4c3)C2)CC1 [Compound 623] | – | – | – | – | – | < 1 | < 1 | < 10 | < 0.1 | > 10
19 | Nc1nc2cc(-c3ccc4ncc(N5CC(C(=O)N6CCOCC6)C5)nc4c3)ccc2o1 [Compound 169] | < 1 | < 1 | < 1 | < 0.1 | < 10 | – | – | – | – | –
20 | CN1CCN(C2CN(c3cnc4ccc(-c5ccc6oc(N)nc6c5)nc4c3)C2)CC1 [Compound 625] | – | – | – | – | – | < 1 | < 1 | < 1 | < 0.1 | > 10
21 | CC(C)N1CCC(n2cnc3ccc(-c4ccc5oc(N)nc5c4)cc3c2=O)CC1 [Compound 74] | < 10 | > 10 | < 10 | < 0.1 | < 10 | – | – | – | – | –

Row | Structure (SMILES) | IC50 (PI3K β (p110β/p85α)) [µM] | IC50 (PI3K δ) [µM] | IC50 (PI3K γ (p110γ)) [µM] | IC50 (PI3K α (p110α/p85α)) [µM] | IC50 (mTOR) [µM] | IC50 (PI3K β (p110β/p85α); Table 4 (PI3K α inhibitors)) [µM] | IC50 (PI3K δ; Table 4 (PI3K α inhibitors)) [µM] | IC50 (PI3K γ (p110γ); Table 4 (PI3K α inhibitors)) [µM] | IC50 (PI3K α (p110α/p85α); Table 4 (PI3K α inhibitors)) [µM] | IC50 (mTOR; Table 4 (PI3K α inhibitors)) [µM]
22 | CCOC(=O)N1CCN(c2cnc3ccc(-c4ccc5oc(N)nc5c4)cc3n2)CC1 [Compound 119] | < 10 | < 10 | < 10 | < 0.1 | < 10 | – | – | – | – | –
23 | COc1ncc(-c2ccc3ncc(C(=O)N4CCOCC4)n3c2)cc1NS(=O)(=O)c1ccc(F)cc1F [Compound 417] | < 0.1 | < 0.1 | < 0.1 | < 0.1 | < 1 | – | – | – | – | –
24 | Nc1nc2cc(-c3ccc4ncc(N5CC(N6CCN(CC7CC7)CC6)C5)nc4c3)ccc2o1 [Compound 335] | < 10 | < 10 | > 10 | < 0.1 | > 10 | – | – | – | – | –
25 | CN1CC(C(=O)N2CCN(c3cnc4ccc(-c5ccc6oc(N)nc6c5)cc4n3)CC2)C1 [Compound 156] | < 1 | < 1 | < 1 | < 0.1 | > 10 | – | – | – | – | –
26 | Nc1nc2cc(-c3ccc4ncc(NCCN5CCOCC5)nc4c3)ccc2o1 [Compound 133] | < 1 | < 1 | < 1 | < 0.1 | > 10 | – | – | – | – | –
27 | O=C(c1cnc2ccc(-c3cnc(Cl)c(NS(=O)(=O)c4ccc(F)cc4F)c3)cn12)N1CCOCC1 [Compound 419] | < 0.1 | < 0.1 | < 0.1 | < 0.1 | < 1 | – | – | – | – | –
28 | Nc1nc2cc(-c3ccc4ncc(N5CC(n6cccn6)C5)nc4c3)ccc2o1 [Compound 318] | < 10 | > 10 | < 1 | < 0.1 | < 1 | – | – | – | – | –
29 | Nc1nc2cc(-c3ccn4ncc(-c5ccncc5)c4n3)ccc2o1 [Compound 62] | < 0.1 | < 0.1 | < 0.1 | < 0.1 | < 0.1 | – | – | – | – | –
30 | Nc1nc2cc(-c3ccc4ncc(-c5cccnc5)nc4c3)ccc2o1 [Compound 76] | > 10 | > 10 | < 1 | < 0.1 | < 10 | – | – | – | – | –
31 | Cc1nccn1C1CN(c2cnc3ccc(-c4ccc5oc(N)nc5c4)cc3n2)C1 [Compound 354] | < 10 | < 10 | < 10 | < 0.1 | < 10 | – | – | – | – | –
32 | Cc1cc2oc(N)nc2cc1-c1ccc2ncc(N3CC(N4CCOCC4)C3)nc2c1 [Compound 353] | > 10 | > 10 | > 10 | < 10 | > 10 | – | – | – | – | –
33 | Nc1nc2ccc(-c3ccc4nccc(-c5ccncc5)c4c3)cc2s1 [Compound 3] | > 10 | < 1 | < 1 | < 0.1 | < 1 | – | – | – | – | –
34 | Nc1nc2cc(-c3ccc4ncc(N5CC(N6CC[C@@H](O)C6)C5)nc4c3)ccc2o1 [Compound 315] | < 10 | < 10 | < 10 | < 0.1 | < 1 | – | – | – | – | –
35 | CS(=O)(=O)N1CCN(Cc2cc3nc(-c4ccc5oc(N)nc5c4)nc(N4CCOCC4)c3s2)CC1 [Compound 129] | < 1 | < 1 | < 0.1 | < 0.1 | < 1 | – | – | – | – | –
36 | Nc1nc2cc(-c3nc(N4CCOCC4)c4cnn(C5CCNCC5)c4n3)ccc2o1 [Compound 348] | < 0.1 | < 10 | < 1 | < 1 | < 1 | – | – | – | – | –
37 | CN1CCN(C2CN(C(=O)c3cnc4ccc(-c5ccc6oc(N)nc6c5)cn34)C2)CC1 [Compound 303] | > 10 | < 10 | > 10 | < 0.1 | < 10 | – | – | – | – | –
38 | CC(C)(N)C(=O)N1CCN(c2cnc3ccc(-c4ccc5oc(N)nc5c4)nc3c2)CC1 [Compound 594] | – | – | – | – | – | < 10 | < 1 | < 1 | < 0.1 | > 10
39 | Nc1nc2cc(-c3ccc4ncc(N5CCNC(=O)C5)nc4c3)ccc2o1 [Compound 135] | < 1 | > 10 | < 1 | < 0.1 | > 10 | – | – | – | – | –
40 | CN1CCN(C2CN(c3cnc4ccc(-c5ccc6oc(N)nc6c5)cc4n3)C2)CC1=O [Compound 323] | < 10 | < 10 | < 1 | < 0.1 | > 10 | – | – | – | – | –
41 | CS(=O)(=O)N1CCN(C2CN(c3cnc4ccc(-c5ccc6oc(N)nc6c5)cc4n3)C2)CC1 [Compound 328] | < 10 | < 10 | < 10 | < 0.1 | > 10 | – | – | – | – | –
42 | CC(=O)Nc1ncc(-c2ccc3oc(N)nc3c2)s1 [Compound 235] | > 10 | < 10 | < 10 | < 10 | < 10 | – | – | – | – | –
